In patent US10273222B2 (CELGENE QUANTICEL RESEARCH, INC., priority 2013, dated 2019):

Columns and labels:
Format in all cases: biochemical
Jarid1B = Jarid1B (Homo sapiens (Human), UniProt Q9UGL1); assay: Jarid1B in vitro enzyme inhibition assay (TR-FRET)
JMJD2A = JMJD2A (Homo sapiens (Human), UniProt O75164); assay: JMJD2A in vitro enzyme inhibition assay (TR-FRET)
Procedure: This assay determines the ability of a test compound to inhibit Jarid1A, Jarid1B, JMJD2C, and JMJD2A demethylase activity. […] Baculovirus expressed JMJD2A (GenBank Accession #NM_014663, AA 1-350) was purchased from BPS Bioscience (Cat#50123).
The ability of test compounds to inhibit the activity of JMJD2A was determined in 384-well plate format under the following reaction conditions: 2 nM JMJD2A, 300 nM H3K9me3-biotin labeled peptide (Anaspec cat #64360), 2 μM alpha-ketoglutaric acid in assay buffer of 50 mM HEPES, pH7.3, 0.005% Brij35, 0.5 mM TCEP, 0.2 mg/ml BSA, 50 μM sodium L-ascorbate, and 2 μM ammonium iron(II) sulfate. Reaction product was determined quantitatively by TR-FRET after the addition of detection reagent Phycolink Streptavidin-allophycocyanin (Prozyme) and Europium-anti-di-methylated histone H3 lysine 9 (H3K9me2) antibody (PerkinElmer) in the presence of 5 mM EDTA in LANCE detection buffer (PerkinElmer) at a final concentration of 50 nM and 1 nM, respectively.
The assay reaction was initiated by the following: 2 μl of the mixture of 900 nM H3K9me3-biotin labeled peptide and 6 μM alpha-ketoglutaric acid with 2 μl of 11-point serial diluted inhibitor in 3% DMSO were added to each well of plate, followed by the addition of 2 μl of 6 nM JMJD2A to initiate the reaction. The reaction mixture was incubated at room temperature for 30 minutes, and terminated by the addition of 6 μl of 5 mM EDTA in LANCE detection buffer containing 100 nM Phycolink Streptavidin-allophycocyanin and 2 nM Europium-anti-H3K9me2 antibody. Plates were read by EnVisionMultilabel Reader in TR-FRET mode (excitation at 320 nm, emission at 615 nm and 665 nm) after 1 hour incubation at room temperature. A ratio was calculated (665/615) for each well and fitted to determine inhibition constant (IC50).

Jarid1A = Jarid1A (Homo sapiens (Human), UniProt P29375); assay: Jarid1A in vitro enzyme inhibition assay (TR-FRET)
From the text: The enzymatic assay of Jarid1A activity is based upon Time Resolved-Fluorescence Resonance Energy Transfer (TR-FRET) detection.

JMJD2C = JMJD2C (Homo sapiens (Human), UniProt Q9H3R0); assay: JMJD2C in vitro enzyme inhibition assay (TR-FRET)
FBXL10 = FBXL10 (Homo sapiens (Human), UniProt Q8NHM5); assay: FBXL10 in vitro enzyme inhibition assay (AlphaScreen)
Outline: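 AlphaScreen read-out of H3K36me1 product, detected with anti-H3K36me1 antibody plus streptavidin donor and Protein A acceptor beads (final 10 μg/ml) in 50 mM HEPES pH 7.3, 10 mM NaCl, 0.005% Brij35, 5 mM EDTA, 2 mg/ml BSA. Beads incubated 2 h to overnight at room temperature; IC50 derived from AlphaScreen signal.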

Jarid1B, sequence (Q9UGL1 2-751): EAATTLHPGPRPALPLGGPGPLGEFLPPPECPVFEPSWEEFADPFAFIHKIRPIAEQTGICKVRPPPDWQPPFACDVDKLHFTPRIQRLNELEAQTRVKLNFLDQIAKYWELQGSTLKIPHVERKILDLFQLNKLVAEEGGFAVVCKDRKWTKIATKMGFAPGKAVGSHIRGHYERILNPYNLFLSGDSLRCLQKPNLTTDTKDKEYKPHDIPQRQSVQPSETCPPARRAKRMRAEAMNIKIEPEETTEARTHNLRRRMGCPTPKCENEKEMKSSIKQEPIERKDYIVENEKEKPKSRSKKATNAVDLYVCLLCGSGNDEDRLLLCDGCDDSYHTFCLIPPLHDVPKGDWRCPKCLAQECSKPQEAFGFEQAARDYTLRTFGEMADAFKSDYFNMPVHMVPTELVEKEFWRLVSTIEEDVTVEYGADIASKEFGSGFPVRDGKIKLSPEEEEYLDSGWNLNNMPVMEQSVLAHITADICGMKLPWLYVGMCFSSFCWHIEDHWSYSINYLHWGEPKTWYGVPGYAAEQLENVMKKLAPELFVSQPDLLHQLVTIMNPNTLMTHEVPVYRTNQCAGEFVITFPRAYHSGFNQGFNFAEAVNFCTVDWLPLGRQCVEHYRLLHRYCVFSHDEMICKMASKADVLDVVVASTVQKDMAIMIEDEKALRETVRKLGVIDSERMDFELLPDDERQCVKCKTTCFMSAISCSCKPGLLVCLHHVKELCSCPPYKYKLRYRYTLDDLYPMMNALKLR
Jarid1A, sequence (P29375 1-1090): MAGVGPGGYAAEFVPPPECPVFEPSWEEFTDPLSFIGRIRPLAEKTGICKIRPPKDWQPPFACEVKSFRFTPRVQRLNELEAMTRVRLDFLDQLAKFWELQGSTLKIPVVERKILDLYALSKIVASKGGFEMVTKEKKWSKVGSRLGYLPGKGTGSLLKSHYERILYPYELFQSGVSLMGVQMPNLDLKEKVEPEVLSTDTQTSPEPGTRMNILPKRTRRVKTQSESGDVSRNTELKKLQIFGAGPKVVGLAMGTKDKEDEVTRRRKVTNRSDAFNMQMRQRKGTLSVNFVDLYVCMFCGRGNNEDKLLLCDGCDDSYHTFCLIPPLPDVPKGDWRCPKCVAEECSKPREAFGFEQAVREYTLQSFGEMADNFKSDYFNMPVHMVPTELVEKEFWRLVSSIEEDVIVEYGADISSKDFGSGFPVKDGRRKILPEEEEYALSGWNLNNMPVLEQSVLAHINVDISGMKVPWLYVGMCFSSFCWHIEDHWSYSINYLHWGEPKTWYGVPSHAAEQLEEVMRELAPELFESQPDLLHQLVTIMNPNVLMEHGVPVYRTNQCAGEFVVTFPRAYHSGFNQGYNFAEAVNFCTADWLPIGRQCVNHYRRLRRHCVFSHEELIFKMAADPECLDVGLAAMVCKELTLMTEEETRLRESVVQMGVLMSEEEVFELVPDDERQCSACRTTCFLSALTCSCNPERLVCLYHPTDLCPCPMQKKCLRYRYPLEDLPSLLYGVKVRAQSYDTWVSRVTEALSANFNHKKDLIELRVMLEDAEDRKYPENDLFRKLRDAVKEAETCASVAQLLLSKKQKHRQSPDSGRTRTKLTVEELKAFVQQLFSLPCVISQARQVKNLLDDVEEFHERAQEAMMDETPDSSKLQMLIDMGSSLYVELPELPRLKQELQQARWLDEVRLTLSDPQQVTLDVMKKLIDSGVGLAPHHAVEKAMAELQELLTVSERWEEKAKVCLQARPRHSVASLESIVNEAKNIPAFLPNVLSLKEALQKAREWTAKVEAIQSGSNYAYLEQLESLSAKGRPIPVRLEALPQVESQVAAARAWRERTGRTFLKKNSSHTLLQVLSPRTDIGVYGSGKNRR
JMJD2A, sequence (O75164 1-350): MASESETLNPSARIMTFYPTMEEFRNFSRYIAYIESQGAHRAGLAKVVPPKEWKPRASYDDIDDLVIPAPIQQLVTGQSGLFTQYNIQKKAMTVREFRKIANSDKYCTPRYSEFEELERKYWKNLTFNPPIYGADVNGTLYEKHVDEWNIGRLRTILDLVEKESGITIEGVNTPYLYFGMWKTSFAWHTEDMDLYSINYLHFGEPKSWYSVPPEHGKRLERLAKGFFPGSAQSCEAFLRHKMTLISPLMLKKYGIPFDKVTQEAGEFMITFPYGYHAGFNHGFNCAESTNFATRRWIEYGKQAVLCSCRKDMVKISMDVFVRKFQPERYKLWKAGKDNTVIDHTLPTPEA
FBXL10, sequence (Q8NHM5 1-650): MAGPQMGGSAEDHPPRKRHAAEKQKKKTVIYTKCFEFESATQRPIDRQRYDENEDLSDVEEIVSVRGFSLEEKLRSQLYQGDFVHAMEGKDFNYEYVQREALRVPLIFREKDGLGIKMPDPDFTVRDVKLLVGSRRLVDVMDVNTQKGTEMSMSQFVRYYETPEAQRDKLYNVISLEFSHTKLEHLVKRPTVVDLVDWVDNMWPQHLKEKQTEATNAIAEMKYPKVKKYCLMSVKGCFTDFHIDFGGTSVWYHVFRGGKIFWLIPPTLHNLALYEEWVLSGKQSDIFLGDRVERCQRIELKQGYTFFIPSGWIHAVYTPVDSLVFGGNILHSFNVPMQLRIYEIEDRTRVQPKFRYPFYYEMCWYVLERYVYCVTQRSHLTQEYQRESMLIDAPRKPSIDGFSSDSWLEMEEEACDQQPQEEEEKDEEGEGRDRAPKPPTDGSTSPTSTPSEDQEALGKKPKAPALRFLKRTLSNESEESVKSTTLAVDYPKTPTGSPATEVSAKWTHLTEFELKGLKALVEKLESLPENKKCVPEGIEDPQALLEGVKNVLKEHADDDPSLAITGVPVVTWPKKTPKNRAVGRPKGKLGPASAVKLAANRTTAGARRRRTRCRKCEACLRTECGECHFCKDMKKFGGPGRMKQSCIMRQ
JMJD2C, sequence (Q9H3R0 2-372): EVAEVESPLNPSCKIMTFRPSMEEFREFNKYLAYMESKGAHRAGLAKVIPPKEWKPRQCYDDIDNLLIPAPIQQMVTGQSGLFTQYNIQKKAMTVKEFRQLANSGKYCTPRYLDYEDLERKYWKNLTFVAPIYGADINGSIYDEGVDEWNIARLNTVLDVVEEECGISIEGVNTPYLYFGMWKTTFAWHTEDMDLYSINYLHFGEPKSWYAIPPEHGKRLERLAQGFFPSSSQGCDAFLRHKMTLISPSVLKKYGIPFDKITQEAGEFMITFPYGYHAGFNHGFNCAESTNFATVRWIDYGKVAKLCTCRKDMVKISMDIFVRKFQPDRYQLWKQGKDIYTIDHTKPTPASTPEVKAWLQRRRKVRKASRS

SMILES | IC50 (Jarid1B) [nM] | IC50 (JMJD2A) [nM] | IC50 (Jarid1A) [nM] | IC50 (JMJD2C) [nM] | IC50 (FBXL10) [nM]
c1ccc2c(c1)CCCC2Cn1cnc(-c2cc(-c3nn[nH]n3)ccn2)c1 (stereo not drawn) [Example 143, 2-[1-(1,2,3,4-tetrahydronaphthalen-1-ylmethyl)imidazol-4-yl]-4-(2H-tetrazol-5-yl)pyridine] | 100 to 1000 | > 10000 | – | 1000 to 10000 | ≤ 100
Cn1cnc(-c2cc(C(=O)O)ccn2)c1-c1cccc(F)c1 [Example 24, 2-[5-(3-fluorophenyl)-1-methyl-1H-imidazol-4-yl]pyridine-4-carboxylic acid] | ≤ 100 | – | ≤ 100 | 100 to 1000 | ≤ 100
O=C(O)c1ccnc(-c2cn(C3CCNC3)cn2)c1 (stereo not drawn) [Example 52, 2-[1-(pyrrolidin-3-yl)-1H-imidazol-4-yl]pyridine-4-carboxylic acid] | ≤ 100 | – | ≤ 100 | ≤ 100 | 100 to 1000
CN1CCCC(Cn2cnc(-c3cc(C(=O)O)ccn3)c2)C1 (stereo not drawn) [Example 55, 2-{1-[(1-methylpiperidin-3-yl)methyl]-1H-imidazol-4-yl}pyridine-4-carboxylic acid] | ≤ 100 | – | ≤ 100 | ≤ 100 | ≤ 100
O=C(O)c1ccnc(-c2cn(Cc3ccccn3)cn2)c1 [Example 47, 2-[1-(pyridin-2-ylmethyl)-1H-imidazol-4-yl]pyridine-4-carboxylic acid] | ≤ 100 | – | ≤ 100 | 100 to 1000 | ≤ 100
Cn1cnc(-c2cc(C(=O)O)ccn2)c1-c1ccc(OC(F)(F)F)cc1 [Example 13, 2-{1-methyl-5-[4-(trifluoromethoxy)phenyl]-1H-imidazol-4-yl}pyridine-4-carboxylic acid] | 100 to 1000 | – | 100 to 1000 | 1000 to 10000 | 100 to 1000
COc1cc(-c2c(-c3cc(C(=O)O)ccn3)ncn2C)ccc1Cl [Example 30, 2-[5-(4-chloro-3-methoxyphenyl)-1-methyl-1H-imidazol-4-yl]pyridine-4-carboxylic acid] | ≤ 100 | – | ≤ 100 | 100 to 1000 | ≤ 100

Continued, values first:

IC50 (Jarid1B) [nM] | IC50 (JMJD2A) [nM] | IC50 (Jarid1A) [nM] | IC50 (JMJD2C) [nM] | IC50 (FBXL10) [nM] | SMILES
≤ 100 | ≤ 100 | ≤ 100 | ≤ 100 | ≤ 100 | CCN(CCn1cnc(-c2cc(C(=O)O)ccn2)c1)Cc1ccc(F)cc1 [Example 70, 2-[1-[2-[ethyl-[(4-fluorophenyl)methyl]amino]ethyl]imidazol-4-yl]pyridine-4-carboxylic acid]
≤ 100 | 1000 to 10000 | ≤ 100 | 100 to 1000 | 100 to 1000 | c1cc(-c2nn[nH]n2)cc(-c2cn(CCN3CCCC3)cn2)n1 [Example 63, 2-{1-[2-(pyrrolidin-1-yl)ethyl]-1H-imidazol-4-yl}-4-(2H-tetrazol-5-yl)pyridine]
≤ 100 | 100 to 1000 | ≤ 100 | 100 to 1000 | ≤ 100 | O=C(O)c1ccnc(-c2cn(CCN3CCCc4cc(Cl)ccc43)cn2)c1 [Example 89, 2-[1-[2-(6-chloro-3,4-dihydro-2H-quinolin-1-yl)ethyl]imidazol-4-yl]pyridine-4-carboxylic acid]
≤ 100 | > 10000 | 100 to 1000 | 1000 to 10000 | ≤ 100 | FC(F)(F)c1cccc(Cn2cnc(-c3cc(-c4nn[nH]n4)ccn3)c2)c1Cl [Example 154, 2-[1-[[2-chloro-3-(trifluoromethyl)phenyl]methyl]imidazol-4-yl]-4-(2H-tetrazol-5-yl)pyridine]
≤ 100 | ≤ 100 | ≤ 100 | ≤ 100 | 1000 to 10000 | CN1CCC(Cn2cnc(-c3cc(C(=O)O)ccn3)c2)CC1 [Example 50, 2-{1-[(1-methylpiperidin-4-yl)methyl]-1H-imidazol-4-yl}pyridine-4-carboxylic acid]
≤ 100 | > 10000 | – | 1000 to 10000 | ≤ 100 | c1ccc2c(CCn3cnc(-c4cc(-c5nn[nH]n5)ccn4)c3)cccc2c1 [Example 142, 2-[1-(2-naphthalen-1-ylethyl)imidazol-4-yl]-4-(2H-tetrazol-5-yl)pyridine]
